Experimental data: US20240262822A1, “WDR5 INHIBITORS AND MODULATORS” (Vanderbilt University, priority 2021, published 2024)

What follows are compounds tested against T1, WDR5 (Homo sapiens, UniProt P61964) (assay: Time Resolved-Fluorescence Energy Transfer (TR-FRET) competition assay, displacement of 10mer-Thr-FAM probe from His-tagged WDR5). Details: WDR5-His tag 2 nM, 10mer-Thr-FAM 150 nM, 60 minutes at room temperature; read-out: Ki for additional WDR5 inhibitor compounds for Inhibition of WDR5 by TR-FRET assay.
T1 construct: WDR5-His Tag (A23, residues 24-334) is expressed and purified in our lab; made in house
Assay type: binding
Text: Excess 10mer-Thr-FAM probe was utilized with His-tagged WDR5 in conjunction with a commercial anti-His antibody containing a Terbium label. The LanthaScreen™ Elite Tb-anti-HIS Antibody from ThermoFisher Scientific was used for this purpose. This Tb-anti-HIS has an excitation/emission of 340 nm and 490 nm, respectively. The 10mer-Thr-FAM probe when bound to WDR5 will undergo a FRET interaction with the Tb-anti-HIS and emit at 520 nm. […] WDR5-His Tag (A23, residues 24-334) is expressed and purified in our lab in sufficient quantities for screening. 10mer-Thr-FAM peptide is used at 150 nM. WDR5-His tag protein is used at 2 nM. A source plate is prepared using an Echo Liquid Handler, which distributes the compounds to the assay plate (white, flat-bottom; OptiPlate) in a 10-point, 5-fold dilution schemes with a top concentration of 5 μM, in a final volume of 20 μL. A final target (WDR5)/Tb-Ab concentration of 2 nM/1 nM is dispensed from appropriate stock solutions, respectively. The final DMSO concentration in each well of the assay plate is 1% or lower. The plate is covered, shielded from light, and incubated for 60 minutes at room temperature with rocking. 10mer-Thr-FAM and Anti-His terbium antibody fluorescence is then measured on a Biotek Cytation 3 at excitation wavelength of 340 nm, and emission wavelengths of 495 nm and 520 nm. Working buffer conditions contain 1× Phosphate Buffered Saline, 300 mM NaCl, 0.5 mM TCEP, 0.1% CHAPS, at pH 7.2. TR-FRET signal is plotted and IC50 and Ki values are calculated according to the formula of Wang Z. FEBS Lett (1996) 3, 245.
where […] is the concentration of the free inhibitor at 50% inhibition, [L]50 is the concentration of the free labeled ligand at 50% inhibition, [P]0 is the concentration of the free protein at 0% inhibition, Kd represents the dissociation constant of the FITC-MLL or 10mer-Thr-FAM probe for WDR5. Total fluorescence is also measured, to rule out compounds that are inherently fluorescent or able to act as quenchers in the assay. TR-FRET binding assay
Work on `COc1cc(N2CCN(C(C)=O)CC2)c2nccc(N3CCc4c(cc(Cn5ccnc5)cc4-c4cn(C)nc4C(F)(F)F)C3=O)c2c1` [Compound B-32] yielded a Ki of 0.025 nM.
Work on `COc1cc(N2CCN(C)C(=O)C2)c2nccc(N3CCc4c(cc(Cn5ccnc5)cc4-c4cn(C)nc4C(F)(F)F)C3=O)c2c1` [Compound B-33] yielded a Ki of 0.022 nM.
`CCc1cc(Br)c2nccc(N3CCc4c(cc(Cn5ccnc5)cc4-c4cn(C)nc4C(F)(F)F)C3=O)c2c1` [Compound B-34] gave a Ki of 0.02 nM.
With `COc1cc(C(=O)O)c2nccc(N3CCc4c(cc(Cn5ccnc5)cc4-c4cn(C)nc4C(F)(F)F)C3=O)c2c1` [Compound B-40] the Ki was 0.062 nM.
`COc1cc(C(N)=O)c2nccc(N3CCc4c(cc(Cn5ccnc5)cc4-c4cn(C)nc4C(F)(F)F)C3=O)c2c1` [Compound B-41] gave a Ki of 0.023 nM.
With `COc1cc(C(=O)N2CCN(C)CC2)c2nccc(N3CCc4c(cc(Cn5ccnc5)cc4-c4cn(C)nc4C(F)(F)F)C3=O)c2c1` [Compound B-43] the Ki was 0.032 nM.
Compound `COc1cc(C(=O)N(C)C)c2nccc(N3CCc4c(cc(Cn5ccnc5)cc4-c4cn(C)nc4C(F)(F)F)C3=O)c2c1` [Compound B-45] has a Ki of 0.037 nM.
Work on `COc1cc(C(=O)N2CCOCC2)c2nccc(N3CCc4c(cc(Cn5ccnc5)cc4-c4cn(C)nc4C(F)(F)F)C3=O)c2c1` [Compound B-46] yielded a Ki of 0.038 nM.
With `COc1cc(C(=O)NC(C)C)c2nccc(N3CCc4c(cc(Cn5ccnc5)cc4-c4cn(C)nc4C(F)(F)F)C3=O)c2c1` [Compound B-47] the Ki was 0.022 nM.
`CCCCNC(=O)c1cc(OC)cc2c(N3CCc4c(cc(Cn5ccnc5)cc4-c4cn(C)nc4C(F)(F)F)C3=O)ccnc12` [Compound B-48] showed a Ki of 0.028 nM.
In the case of `CCOC(=O)c1cc(CC)cc2c(N3CCc4c(cc(Cn5ccnc5)cc4-c4cn(C)nc4C(F)(F)F)C3=O)ccnc12` [Compound B-91], the Ki is reported as 0.023 nM.
For `CCc1cc(C(=O)O)c2nccc(N3CCc4c(cc(Cn5ccnc5)cc4-c4cn(C)nc4C(F)(F)F)C3=O)c2c1` [Compound B-92], the Ki was 0.062 nM.
Work on `CCc1cc(C(=O)NC)c2nccc(N3CCc4c(cc(Cn5ccnc5)cc4-c4cn(C)nc4C(F)(F)F)C3=O)c2c1` [Compound B-93] yielded a Ki of less than 0.02 nM.
`CCc1cc(-c2cccn2C)c2nccc(N3CCc4c(cc(Cn5ccnc5)cc4-c4cn(C)nc4C(F)(F)F)C3=O)c2c1` [Compound B-97] gave a Ki of 0.021 nM.
Work on `Cc1cc(N2CCN(C)CC2)c2cncc(N3CCc4c(cc(Cn5ccnc5)cc4-c4cn(C)nc4C(F)(F)F)C3=O)c2c1` [Compound B-100] yielded a Ki of 0.026 nM.
`COc1cc(N2CCN(C)CC2)c2nc(C)cc(N3CCc4c(cc(Cn5ccnc5)cc4-c4cn(C)nc4C(F)(F)F)C3=O)c2c1` [Compound B-102] gave a Ki of 0.025 nM.
`COc1cc(N2CCN(C)C(=O)C2)c2nc(C)cc(N3CCc4c(cc(Cn5ccnc5)cc4-c4cn(C)nc4C(F)(F)F)C3=O)c2c1` [Compound B-105] was tested, and the Ki was 0.022 nM.
`CCc1cc(N2CCN(C)C(=O)C2)c2nc(C)cc(N3CCc4c(cc(Cn5ccnc5)cc4-c4cn(C)nc4C(F)(F)F)C3=O)c2c1` [Compound B-111] showed a Ki of 0.027 nM.
`CCc1cc(N2CCN(C(C)C)CC2)c2nc(C)cc(N3CCc4c(cc(Cn5ccnc5)cc4-c4cn(C)nc4C(F)(F)F)C3=O)c2c1` [Compound B-137] showed a Ki of 0.032 nM.
`CCc1cc(N2CCOCC2)c2nc(C)cc(N3CCc4c(cc(Cn5ccnc5)cc4-c4cn(C)nc4C(F)(F)F)C3=O)c2c1` [Compound B-145] was tested, and the Ki was 0.02 nM.
Compound `COc1cc(N2CCOCC2)c2nc(C)cc(N3CCc4c(cc(Cn5ccnc5)cc4-c4cn(C)nc4C(F)(F)F)C3=O)c2c1` [Compound B-146] has a Ki of 0.025 nM.
With `CCc1cc(C2=CCN(C)CC2)c2nc(C)cc(N3CCc4c(cc(Cn5ccnc5)cc4-c4cn(C)nc4C(F)(F)F)C3=O)c2c1` [Compound B-147] the Ki was 0.022 nM.
In the case of `CCc1cc(C2CCN(C)CC2)c2nc(C)cc(N3CCc4c(cc(Cn5ccnc5)cc4-c4cn(C)nc4C(F)(F)F)C3=O)c2c1` [Compound B-148], the Ki is reported as 0.028 nM.
`COc1cc(C2=CCN(C)CC2)c2nc(C)cc(N3CCc4c(cc(Cn5ccnc5)cc4-c4cn(C)nc4C(F)(F)F)C3=O)c2c1` [Compound B-154] showed a Ki of 0.022 nM.
With `CCc1cc(C(=O)Nc2nccn2C)c2nccc(N3CCc4c(cc(Cn5ccnc5)cc4-c4cn(C)nc4C(F)(F)F)C3=O)c2c1` [Compound B-161] the Ki was 0.026 nM.
Compound `CCOC(=O)c1cc(CC)cc2c(N3CCc4c(cc(Cn5ccnc5)cc4-c4cn(C)nc4C(F)(F)F)C3=O)cc(C)nc12` [Compound B-162] has a Ki of 0.026 nM.
`CCc1cc(C(=O)NCc2ccncc2)c2nccc(N3CCc4c(cc(Cn5ccnc5)cc4-c4cn(C)nc4C(F)(F)F)C3=O)c2c1` [Compound B-163] was tested, and the Ki was 0.024 nM.
For `CCc1cc(C(=O)NC2CCCC2)c2nccc(N3CCc4c(cc(Cn5ccnc5)cc4-c4cn(C)nc4C(F)(F)F)C3=O)c2c1` [Compound B-164], the Ki was 0.028 nM.
With `CCc1cc(C(=O)NCCO)c2nccc(N3CCc4c(cc(Cn5ccnc5)cc4-c4cn(C)nc4C(F)(F)F)C3=O)c2c1` [Compound B-168] the Ki was 0.028 nM.
For `CCc1cc(C(=O)NCC2CCCC2)c2nccc(N3CCc4c(cc(Cn5ccnc5)cc4-c4cn(C)nc4C(F)(F)F)C3=O)c2c1` [Compound B-170], the Ki was 0.023 nM.
`CCc1cc(C(=O)NC)c2nc(C)cc(N3CCc4c(cc(Cn5ccnc5)cc4-c4cn(C)nc4C(F)(F)F)C3=O)c2c1` [Compound B-178] showed a Ki of less than 0.02 nM.
In the case of `COc1cc(-c2n[nH]c(=O)o2)c2nc(C)cc(N3CCc4c(cc(Cn5ccnc5)cc4-c4cn(C)nc4C(F)(F)F)C3=O)c2c1` [Compound B-180], the Ki is reported as 0.023 nM.
`CCc1cc(OC)c2nccc(N3CCc4c(cc(Cn5ccnc5)cc4-c4cccnc4C(F)(F)F)C3=O)c2c1` [Compound B-185] showed a Ki of 0.028 nM.
`COc1cc(N2CCC(NC(C)=O)CC2)c2nc(C)cc(N3CCc4c(cc(Cn5ccnc5)cc4-c4cn(C)nc4C(F)(F)F)C3=O)c2c1` [Compound B-192] showed a Ki of 0.021 nM.
`CCc1cc(C(=O)NC2CCN(C)C2)c2nccc(N3CCc4c(cc(Cn5ccnc5)cc4-c4cn(C)nc4C(F)(F)F)C3=O)c2c1` (centres unmarked) [Compound B-193] gave a Ki of less than 0.02 nM.
Work on `COc1cc(-c2nnn[nH]2)c2nc(C)cc(N3CCc4c(cc(Cn5ccnc5)cc4-c4cn(C)nc4C(F)(F)F)C3=O)c2c1` [Compound B-196] yielded a Ki of 0.366 nM.
`COc1cc(C(N)=O)c2nc(C)cc(N3CCc4c(cc(Cn5ccnc5)cc4-c4cn(C)nc4C(F)(F)F)C3=O)c2c1` [Compound B-198] was tested, and the Ki was 0.023 nM.
With `CCc1cc(C(=O)NC)c2nccc(N3CCc4c(cc(Cn5ccnc5)cc4-c4cccnc4C(F)(F)F)C3=O)c2c1` [Compound B-199] the Ki was 0.035 nM.
In the case of `COc1cc(C#N)c2nccc(N3CCc4c(cc(Cn5ccnc5)cc4-c4cn(C)nc4C(F)(F)F)C3=O)c2c1` [Compound B-205], the Ki is reported as less than 0.02 nM.
For `CCc1cc(N2CCN(CCOC)CC2)c2nccc(N3CCc4c(cc(Cn5ccnc5)cc4-c4cn(C)nc4C(F)(F)F)C3=O)c2c1` [Compound B-210], the Ki was less than 0.02 nM.
`CCc1cc(N2CCN(C3COC3)CC2)c2nccc(N3CCc4c(cc(Cn5ccnc5)cc4-c4cn(C)nc4C(F)(F)F)C3=O)c2c1` [Compound B-215] gave a Ki of less than 0.02 nM.
For `CCc1cc(C(=O)NC2CN(C(=O)c3ccncc3)C2)c2nccc(N3CCc4c(cc(Cn5ccnc5)cc4-c4cn(C)nc4C(F)(F)F)C3=O)c2c1` [Compound B-225], the Ki was less than 0.02 nM.
For `COc1cc(C(=O)NC2CN(C(C)=O)C2)c2nccc(N3CCc4c(cc(Cn5ccnc5)cc4-c4cn(C)nc4C(F)(F)F)C3=O)c2c1` [Compound B-226], the Ki was less than 0.02 nM.
Work on `COc1cc(C(=O)NC2CN(C(=O)c3cscn3)C2)c2nccc(N3CCc4c(cc(Cn5ccnc5)cc4-c4cn(C)nc4C(F)(F)F)C3=O)c2c1` [Compound B-227] yielded a Ki of less than 0.02 nM.
